This is an account of results in US20180118756A1, “COMPOSITIONS AND METHODS OF MODULATING SHORT-CHAIN DEHYDROGENASE ACTIVITY” (CASE WESTERN RESERVE UNIVERSITY, priority 2015, published 2018).

In brackets after ≈: the same amount, converted by molar mass. Read-outs that look alike come from different tables or passages of the source.

As usually defined, the solubility is the concentration that dissolves in the medium under given conditions. For orientation: IC50 means the point on the concentration scale where inhibition reaches its midpoint.

A short description of data set [1]: aqueous solubility in pH 7 or pH 4 citrate buffer solution. Format: physicochemical.
A further data set deals with T1, recombinant 15-PGDH (Homo sapiens, UniProt P15428).
T1 sequence (P15428 1-266): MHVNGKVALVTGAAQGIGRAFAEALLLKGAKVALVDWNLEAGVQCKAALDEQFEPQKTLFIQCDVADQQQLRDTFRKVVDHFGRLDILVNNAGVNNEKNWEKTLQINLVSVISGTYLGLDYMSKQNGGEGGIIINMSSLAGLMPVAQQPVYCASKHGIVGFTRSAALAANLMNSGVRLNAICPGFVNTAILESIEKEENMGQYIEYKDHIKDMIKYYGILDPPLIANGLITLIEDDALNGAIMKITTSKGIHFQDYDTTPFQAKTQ
Put plainly: IC50 for inhibiting enzymatic activity of recombinant 15-PGDH in an in vitro assay. Format: biochemical. The note with it: recombinant human 15-PGDH at 5 nM, in vitro.

[2] abbreviates: citrate buffer solution, pH 4, aqueous buffer, pH 4 citrate buffer solution, read-out: pH 4 solubility.
The mark [3] stands for this setting: citrate buffer solution, pH 7, aqueous buffer, pH 7 citrate buffer solution, read-out: pH 7 solubility.
Where [4] appears, read: read-out: Enzyme Inhibitor IC50 (nM) at 5 nM 15-PGDH.
[5] abbreviates: Enzyme Inhibitor IC50 (nM) at 5 nM 15-PGDH.

For `CCCC[S+]([O-])c1sc2nc(-c3nccs3)cc(-c3cnc(C4CC4)n3C)c2c1N` (single isomer, unassigned) [SW 212345], the results for the solubility in data set [1] (setting [2]) and in data set [1] (setting [3]) were 0.164 mg/mL (≈ 358 µM) and 0.004 mg/mL (≈ 8.74 µM), respectively. Consider `CCCC[S+]([O-])c1sc2nc(-c3nccs3)cc(-c3cnc(C)n3C)c2c1N` (single isomer, unassigned; (+)) [(+)-(R)- SW 209415], for which the “pH 7 solubility (μg/mL)” value in data set [1] (pH 7 citrate buffer solution) was 2 μg/mL. As to `CCCC[S+]([O-])c1sc2nc(-c3nccs3)ccc2c1N` (stereo not shown) [SW 206992], the solubility in data set [1] (setting [3]) was determined as 0.00476 mg/mL (≈ 14.1 µM). Same read-out and setting: the result for `CCCC[S+]([O-])c1sc2nc(-c3cccs3)cc(C)c2c1N` (stereo not shown) [SW 208488] reads 0.0026 mg/mL (≈ 7.42 µM).

Take `CCCC[S+]([O-])c1sc2nc(-c3ncco3)cc(-c3ccccc3)c2c1N` (stereo not shown) [SW 208496]: the solubility in data set [1] (setting [3]) was 0.0022 mg/mL (≈ 5.53 µM). As for `CC(C)[S+]([O-])c1sc2nc(-c3ncco3)cc(-c3ccccc3)c2c1N` (stereo not shown) [SW 208660], at recombinant 15-PGDH (setting [4]), the IC50 is 2.86 nM. In data set [1] (setting [3]), the solubility is 0.0116 mg/mL (≈ 30.2 µM). In the case of `Cc1cc(-c2nccs2)nc2sc([S+]([O-])C(C)C)c(N)c12` (stereo not shown) [SW 208664], on recombinant 15-PGDH (setting [4]), the IC50 came to 7.62 nM. Also, the solubility in data set [1] (setting [3]) worked out at 0.0097 mg/mL (≈ 28.7 µM). On to `CCCC[S+]([O-])c1sc2nc(-c3nccs3)cc(-c3cccnc3)c2c1N` (stereo not shown) [SW 208777], for which the solubility in data set [1] (setting [2]) worked out at 0.0038 mg/mL (≈ 9.17 µM); in data set [1] (setting [3]) it was 0.0034 mg/mL (≈ 8.2 µM).

Turning to `CC(C)[S+]([O-])c1sc2nc(-c3nccs3)cc(-c3cccnc3)c2c1N` (stereo not shown) [SW 208778], the solubility in data set [1] (setting [2]) amounted to 0.026 mg/mL (≈ 64.9 µM); in data set [1] (setting [3]), 0.0099 mg/mL (≈ 24.7 µM).

As to `CC(C)[S+]([O-])c1sc2nc(-c3nccs3)cc(-c3ccccc3)c2c1N` (stereo not shown) [SW 208780], on recombinant 15-PGDH (setting [4]), the IC50 is 5.55 nM. Moreover, the solubility in data set [1] (setting [3]) worked out at 0.00065 mg/mL (≈ 1.63 µM).

As to `CCCC[S+]([O-])c1sc2nc(-c3nccs3)cc(-c3nccn3C)c2c1N` (stereo not shown) [SW 209125], in data set [1] (setting [2]), the solubility was 0.0316 mg/mL (≈ 75.7 µM). Regarding `CC(C)[S+]([O-])c1sc2nc(-c3nccs3)cc(-c3nccn3C)c2c1N` (stereo not shown) [SW 209279], the solubility in data set [1] (setting [2]) amounted to 0.073 mg/mL (≈ 181 µM); in data set [1] (setting [3]) it was 0.0377 mg/mL (≈ 93.4 µM).

Turning to `CCC[S+]([O-])c1sc2nc(-c3nccs3)cc(-c3nccn3C)c2c1N` (stereo not shown) [SW 209280], the figures for the solubility in data set [1] (setting [2]) and in data set [1] (setting [3]) were 0.088 mg/mL (≈ 218 µM) and 0.017 mg/mL (≈ 42.1 µM), respectively.

`CCCC[S+]([O-])c1sc2nc(-c3nccs3)cc(-c3cnc(C)n3C)c2c1N` (stereo not shown) [SW 209415, 2-(butylsulfinyl)-4-(1,2-dimethyl-1H-imidazol-5-yl)-6-(thiazol-2-yl)thieno[2,3-b]pyridin-3-amine]: the solubility amounted to 0.241 mg/mL (≈ 558 µM) in data set [1] (setting [2]) and 0.0543 mg/mL (≈ 126 µM) in data set [1] (setting [3]).

As to `CCCC[S+]([O-])c1sc2nc(-c3nccs3)cc(-c3cccc(CO)c3)c2c1N` (stereo not shown) [SW 209418], in data set [1] (setting [3]), the solubility stood at 0.0059 mg/mL (≈ 13.3 µM).

On to `CCCC[S+]([O-])c1sc2nc(-c3nccs3)cc(-c3ccc(OCCO)cc3)c2c1N` (stereo not shown) [SW 211688], for which the values for the solubility in data set [1] (setting [2]) and in data set [1] (setting [3]) were 1.18 mg/mL (≈ 2490 µM) and 0.115 mg/mL (≈ 243 µM), respectively.

Regarding `CCCC[S+]([O-])c1sc2nc(-c3nccs3)cc(-c3ccc(COC(=O)NCCCl)cc3)c2c1N` (stereo not shown) [SW 213064, 4-(3-amino-2-(butylsulfinyl)-6-(thiazol-2-yl)thieno[2,3-b]pyridin-4-yl)benzyl (2-chloroethyl)carbamate], at recombinant 15-PGDH (setting [5]), the IC50 is 5.9 nM. In addition, the solubility in data set [1] (aqueous buffer, pH 7 citrate buffer solution, read-out: pH 7 solubility) was 0.00827 mg/mL (≈ 15.1 µM). On to `COCC[S+]([O-])c1sc2nc(-c3nccs3)cc(-c3nccs3)c2c1N` (stereo not shown) [SW 213156], for which, at recombinant 15-PGDH (setting [5]), the 50% inhibitory concentration (IC50) worked out at 5.7 nM. Moreover, in data set [1] (setting [3]), the solubility came out at 0.0038 mg/mL (≈ 8.99 µM). Consider `CCCC[S+]([O-])c1sc2nc(-c3nccs3)cc(-c3ccc(C(C)O)cc3)c2c1N` (stereo not shown) [SW 217778, 1-(4-(3-amino-2-(butylsulfinyl)-6-(thiazol-2-yl)thieno[2,3-b]pyridin-4-yl)phenyl)ethan-1-ol], for which the IC50 at recombinant 15-PGDH (setting [5]) was 2.2 nM. Besides, in data set [1] (setting [3]), the solubility is 0.0074 mg/mL (≈ 16.2 µM). Take `CCCC[S+]([O-])c1sc2nc(-c3nc(C)cs3)cc(-c3cnc(C)n3C)c2c1N` (stereo not shown) [SW 217779, 2-(butylsulfinyl)-4-(1,2-dimethyl-1H-imidazol-5-yl)-6-(4-methylthiazol-2-yl)thieno[2,3-b]pyridin-3-amine]: the solubility came out at 0.597 mg/mL (≈ 1340 µM) in data set [1] (setting [2]) and 0.0305 mg/mL (≈ 68.4 µM) in data set [1] (setting [3]). For `CCCC[S+]([O-])c1sc2nc(-c3nccs3)cc(-c3cncn3C)c2c1N` (stereo not shown) [SW 217781, 2-(butylsulfinyl)-4-(1-methyl-1H-imidazol-5-yl)-6-(thiazol-2-yl)thieno[2,3-b]pyridin-3-amine], the half-inhibitory concentration (IC50) at recombinant 15-PGDH (setting [5]) was 1.9 nM. The solubility in data set [1] (setting [2]) came to 0.0718 mg/mL (≈ 172 µM); in data set [1] (setting [3]), 0.014 mg/mL (≈ 33.5 µM).

For the molecule `CCCC[S+]([O-])c1sc2nc(-c3nccs3)cc(-c3ccc(OCCOC(=O)CCC(=O)O)cc3)c2c1N` (stereo not shown) [SW 217999, 4-(2-(4-(3-amino-2-(butylsulfinyl)-6-(thiazol-2-yl)thieno[2,3-b]pyridin-4-yl)phenoxy)ethoxy)-4-oxobutanoic acid], the IC50 at recombinant 15-PGDH (setting [5]) amounted to 6.2 nM. Besides, the solubility in data set [1] (setting [3]) is 0.747 mg/mL (≈ 1300 µM). As to `CCCC[S+]([O-])c1sc2nc(-c3nccs3)cc(-c3nc(C)c(C)n3C)c2c1N` (stereo not shown) [SW 218522, 2-(butylsulfinyl)-6-(thiazol-2-yl)-4-(1,4,5-trimethyl-1H-imidazol-2-yl)thieno[2,3-b]pyridin-3-amine], the IC50 at recombinant 15-PGDH (setting [5]) came to 2.5 nM.
